Experimental data as given in US10125134B2 (Mirati Therapeutics, Inc., priority 2016, dated 2018).
Read-outs that look alike come from different tables or passages of the source.

What was measured:
[1] = tested on: NCI-H358 cells (express KRas G12C), Phospho-ERK; test: Cellular inhibition of KRas G12C: Phospho-ERK in NCI-H358 cells; assay type: cell-based; settings: pERK(Thr202/Tyr204) normalized with GAPDH, NCI-H358 cells, 3 hours, read-out: IC50
In short: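 IC50 derived by 4-parameter fit of GAPDH-normalized pERK(Thr202/Tyr204) signal, as percent of DMSO control. Signal came from in-cell immunodetection with infrared secondaries after 3 h compound exposure of KRas G12C NCI-H358 cells at 0.5% DMSO.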

KRas G12C = KRas G12C (Homo sapiens, UniProt P01116, C118S/C51S/C80L/G12C); test: KRas G12C Modification Assay (LCMS detection of covalent adduct); assay type: binding; settings: normalized percent of control; tested at 5 μM concentration for 3 hours
In short: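 Cys-light KRas G12C mutant protein incubated with compound in K-Ras assay buffer, reactions quenched at set time points with 25 mM acetic acid and analysed by intact-protein LC/MS on a C-3 column. Deconvoluted mass heights expressed as percent of control (POC) relative to compound-free protein.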

Structure (SMILES)	POC (KRas G12C)	IC50 ([1]; Homo sapiens)	IC50 ([1]; Homo sapiens, NCI-H358, 3 h)	IC50 [1]
C=CC(=O)N1CCN(c2nc(OC[C@@H]3CCCN3C)nc3c2CCN(c2cccc4ccccc24)C3)CC1CC#N (stereo partly drawn) [Example 147, 2-[4-[2-[[(2S)-1-methylpyrrolidin-2-yl]methoxy]-7-(1-naphthyl)-6,8-dihydro-5H-pyrido[3,4-d]pyrimidin-4-yl]-1-prop-2-enoyl-piperazin-2-yl]acetonitrile]	C (“C”>50% POC)	0.1 to 1000 nM	–	–
C=CC(=O)N1CCN(c2ncnc3c2CCN(c2cc(O)ccc2F)C3)CC1 [Example 5, 1-(4-(7-(2-fluoro-5-hydroxyphenyl)-5,6,7,8-tetrahydropyrido[3,4-d]pyrimidin-4-yl)piperazin-1-yl)prop-2-en-1-one]	A (“A”≤25% POC)	–	> 1000 nM	–
C=CC(=O)N1CCN(c2nc(OCC3CCN(C)C3)nc3c2CCN(c2cc(O)cc4ccccc24)C3)CC1 (stereo not drawn) [Example 89, 1-(4-(7-(3-hydroxynaphthalen-1-yl)-2-((l-methylpyrrolidin-3-yl)methoxy)-5,6,7,8-tetrahydropyrido[3,4-d]pyrimidin-4-yl)piperazin-1-yl)prop-2-en-1-one]	C (“C”>50% POC)	–	0.1 to 1000 nM	–
C=CC(=O)N1CCN(c2nc(OC[C@@H]3CN(C)CCO3)nc3c2CCN(c2cccc4ccccc24)C3)CC1CC#N (stereo partly drawn) [Example 442, 2-(1-Acryloyl-4-(2-(((S)-4-methylmorpholin-2-yl)methoxy)-7-(naphthalen-1-yl)-5,6,7,8-tetrahydropyrido[3,4-d]pyrimidin-4-yl)piperazin-2-yl)acetonitrile]	C (“C”>50% POC)	–	–	0.1 to 1000 nM
C=CC(=O)N1CCN(c2nc(OC[C@@H]3CCCN3C)nc3c2CCN(c2cnccc2C2CC2)C3)C[C@@H]1CC#N [Example 352, 2-[(2S)-4-[7-(4-cyclopropyl-3-pyridyl)-2-[[(2S)-1-methylpyrrolidin-2-yl]methoxy]-6,8-dihydro-5H-pyrido[3,4-d]pyrimidin-4-yl]-1-prop-2-enoyl-piperazin-2-yl]acetonitrile]	C (“C”>50% POC)	–	0.1 to 1000 nM	–
C=CC(=O)N1CCN(c2nc(OCCN(C)C)nc3c2CCN(c2cc(O)cc4ccccc24)C3)CC1CC#N (centres unmarked) [Example 170, 2-(1-acryloyl-4-(2-(2-(dimethylamino)ethoxy)-7-(3-hydroxynaphthalen-1-yl)-5,6,7,8-tetrahydropyrido[3,4-d]pyrimidin-4-yl)piperazin-2-yl)acetonitrile]	C (“C”>50% POC)	0.1 to 1000 nM	–	–
C=CC(=O)N1CCN(c2nc(OC[C@@H]3CN(C)CCO3)nc3c2CCN(c2cccc4ccccc24)C3)CC1CC#N (stereo partly drawn) [Example 271, 2-(1-acryloyl-4-(2-(((S)-4-methylmorpholin-2-yl)methoxy)-7-(naphthalen-1-yl)-5,6,7,8-tetrahydropyrido[3,4-d]pyrimidin-4-yl)piperazin-2-yl)acetonitrile]	C (“C”>50% POC)	–	0.1 to 1000 nM	–
C=CC(=O)N1CCN(c2nc(OCCCN3CCOCC3)nc3c2CCN(c2cc(O)cc(Cl)c2F)C3)CC1 [Example 232, 1-(4-(7-(3-chloro-2-fluoro-5-hydroxyphenyl)-2-(3-morpholinopropoxy)-5,6,7,8-tetrahydropyrido[3,4-d]pyrimidin-4-yl)piperazin-1-yl)prop-2-en-1-one]	C (“C”>50% POC)	> 1000 nM	–	–
C=CC(=O)N1CCN(c2nc(O[C@H](C)CN(C)C)nc3c2CCN(c2c(C)ccc(F)c2O)C3)CC1 [Example 87, (R)-1-(4-(2-((1-(dimethylamino)propan-2-yl)oxy)-7-(3-fluoro-2-hydroxy-6-methylphenyl)-5,6,7,8-tetrahydropyrido[3,4-d]pyrimidin-4-yl)piperazin-1-yl)prop-2-en-1-one]	A (“A”≤25% POC)	> 1000 nM	–	–
C=CC(=O)N1CCN(c2nc(OC[C@@H]3CCCN3C)nc3c2CCN(c2cccc(Cl)c2C(F)(F)F)C3)CC1CC#N (stereo partly drawn) [Example 277, 2-(1-acryloyl-4-(7-(3-chloro-2-(trifluoromethyl)phenyl)-2-(((S)-1-methylpyrrolidin-2-yl)methoxy)-5,6,7,8-tetrahydropyrido[3,4-d]pyrimidin-4-yl)piperazin-2-yl)acetonitrile]	C (“C”>50% POC)	–	0.1 to 1000 nM	–
C=CC(=O)N1CCN(c2nc(OC[C@@H]3CCCN3C)nc3c2CCN(c2c(C)c(O)cc4ccccc24)C3)CC1 [Example 175, (S)-1-(4-(7-(3-hydroxy-2-methylnaphthalen-1-yl)-2-((1-methylpyrrolidin-2-yl)methoxy)-5,6,7,8-tetrahydropyrido[3,4-d]pyrimidin-4-yl)piperazin-1-yl)prop-2-en-1-one]	C (“C”>50% POC)	0.1 to 1000 nM	–	–

The next lines start with results.

POC (KRas G12C)	Structure (SMILES)	IC50 ([1]; Homo sapiens)	IC50 ([1]; Homo sapiens, NCI-H358, 3 h)	IC50 [1]
A (“A”≤25% POC)	C=CC(=O)N1CCN(c2nc(OCCN(C)C)nc3c2CCN(c2cc(O)cc4ccccc24)C3)CC1C(=O)N(C)C (centres unmarked) [Example 51, 1-acryloyl-4-(2-(2-(dimethylamino)ethoxy)-7-(3-hydroxynaphthalen-1-yl)-5,6,7,8-tetrahydropyrido[3,4-d]pyrimidin-4-yl)-N,N-dimethylpiperazine-2-carboxamide]	> 1000 nM	–	–
C (“C”>50% POC)	C=CC(=O)N1CCN(c2nc(OCC(CO)N(C)C)nc3c2CCN(c2cc(O)cc4ccccc24)C3)CC1 (centres unmarked) [Example 55, 1-(4-(2-(2-(dimethylamino)-3-hydroxypropoxy)-7-(3-hydroxynaphthalen-1-yl)-5,6,7,8-tetrahydropyrido[3,4-d]pyrimidin-4-yl)piperazin-1-yl)prop-2-en-1-one]	–	0.1 to 1000 nM	–
C (“C”>50% POC)	C=CC(=O)N1CCN(c2nc(OC[C@@H]3CCCCN3C)nc3c2CCN(c2cccc4ccccc24)C3)C[C@@H]1CC#N [Example 377, 2-((S)-1-acryloyl-4-(2-(((S)-1-methylpiperidin-2-yl)methoxy)-7-(naphthalen-1-yl)-5,6,7,8-tetrahydropyrido[3,4-d]pyrimidin-4-yl)piperazin-2-yl)acetonitrile]	–	0.1 to 1000 nM	–
A (“A”≤25% POC)	C=CC(=O)N1CCN(c2nc(OC[C@@H]3CCCN3C)nc3c2CCN(c2cccc4cnccc24)C3)CC1CC#N (stereo partly drawn) [Example 262, 2-[4-[7-(5-isoquinolyl)-2-[[(2S)-1-methylpyrrolidin-2-yl]methoxy]-6,8-dihydro-5H-1-pyrido[3,4-d]pyrimidin-4-yl]-1-prop-2-enoyl-piperazin-2-yl]acetonitrile]	–	> 1000 nM	–
C (“C”>50% POC)	C=CC(=O)N1CCN(c2nc(O[C@H](C)CN3CCN(C(C)=O)CC3)nc3c2CCN(c2cc(O)cc4ccccc24)C3)CC1 [Example 36, (R)-1-(4-(2-((1-(4-acetylpiperazin-1-yl)propan-2-yl)oxy)-7-(3-hydroxynaphthalen-1-yl)-5,6,7,8-tetrahydropyrido[3,4-d]pyrimidin-4-yl)piperazin-1-yl)prop-2-en-1-one]	–	> 1000 nM	–
C (“C”>50% POC)	C/C=C/C(=O)N1CCN(c2nc(OC[C@@H]3CCCN3C)nc3c2CCN(c2cccc4ccccc24)C3)CC1CC#N (stereo partly drawn) [Example 263, 2-[1-[(E)-but-2-enoyl]-4-[2-[[(2S)-1-methylpyrrolidin-2-yl]methoxy]-7-(1-naphthyl)-6,8-dihydro-5H-pyrido[3,4-d]pyrimidin-4-yl]piperazin-2-yl]acetonitrile]	–	0.1 to 1000 nM	–
C (“C”>50% POC)	C=CC(=O)N1CCN(c2nc(OC[C@@H]3CCCN3C)nc3c2CCN(c2c(C)c(C)cc4[nH]ccc24)C3)CC1 [Example 454, 1-[4-[7-(5,6-dimethyl-1H-indol-4-yl)-2-[[(2S)-1-methylpyrrolidin-2-yl]methoxy]-6,8-dihydro-5H-pyrido[3,4-d]pyrimidin-4-yl]piperazin-1-yl]prop-2-en-1-one]	–	0.1 to 1000 nM	–
C (“C”>50% POC)	C/C=C/C(=O)N1CCN(c2nc(OC[C@@H]3CCCN3C)nc3c2CCN(c2cc(O)cc4ccccc24)C3)CC1 [Example 198, (S,E)-1-(4-(7-(3-hydroxynaphthalen-1-yl)-2-((1-methylpyrrolidin-2-yl)methoxy)-5,6,7,8-tetrahydropyrido[3,4-d]pyrimidin-4-yl)piperazin-1-yl)but-2-en-1-one]	–	> 1000 nM	–
C (“C”>50% POC)	C=CC(=O)N1CCN(c2nc(O[C@@H]3CCCN(C)C3)nc3c2CCN(c2cc(O)cc4ccccc24)C3)CC1 [Example 67, (R)-1-(4-(7-(3-hydroxynaphthalen-1-yl)-2-((1-methylpiperidin-3-yl)oxy)-5,6,7,8-tetrahydropyrido[3,4-d]pyrimidin-4-yl)piperazin-1-yl)prop-2-en-1-one]	–	0.1 to 1000 nM	–
C (“C”>50% POC)	C=CC(=O)N1CCN(c2nc(OC[C@@H]3CCCN3C)nc3c2CCN(c2ccccc2C(F)(F)F)C3)CC1 [Example 159, (S)-1-(4-(2-((1-methylpyrrolidin-2-yl)methoxy)-7-(2-(trifluoromethyl)phenyl)-5,6,7,8-tetrahydropyrido[3,4-d]pyrimidin-4-yl)piperazin-1-yl)prop-2-en-1-one]	–	> 1000 nM	–
C (“C”>50% POC)	C=CC(=O)N1CCN(c2nc(O[C@H](C)CN3CC[C@H](OC)C3)nc3c2CCN(c2cc(O)cc4ccccc24)C3)CC1 [Example 64, 1-(4-(7-(3-hydroxynaphthalen-1-yl)-2-(((R)-1-((S)-3-methoxypyrrolidin-1-yl)propan-2-yl)oxy)-5,6,7,8-tetrahydropyrido[3,4-d]pyrimidin-4-yl)piperazin-1-yl)prop-2-en-1-one]	–	0.1 to 1000 nM	–
